Data published in ChEMBL document CHEMBL1154064, “Synthesis and DNA cleavage activity of 2-hydrazinyl-1,4,5,6-tetrahydropyrimidine containing hydroxy group” (2009).

Assays:
Nucleic Acid [1] = test: Binding affinity to Escherichia coli pUC19 DNA assessed as form 2 DNA level at 0.175 mM by agarose gel electrophoresis; type: nucleic-acid assay
Nucleic Acid [2] = test: Binding affinity to Escherichia coli pUC19 DNA assessed as form 1 DNA level at 0.175 mM by agarose gel electrophoresis; type: nucleic-acid assay
Nucleic Acid [3] = test: Binding affinity to Escherichia coli pUC19 DNA assessed as form 2 DNA level at 0.175 mM after 13.07 hrs by agarose gel electrophoresis; type: nucleic-acid assay
Nucleic Acid [4] = test: Binding affinity to Escherichia coli pUC19 DNA assessed as form 1 DNA level at 0.175 mM after 23.12 hrs by agarose gel electrophoresis; type: nucleic-acid assay
Nucleic Acid [5] = test: Binding affinity to Escherichia coli pUC19 DNA assessed as form 2 DNA level at 0.175 mM after 23.12 hrs by agarose gel electrophoresis; type: nucleic-acid assay
Nucleic Acid [6] = test: Binding affinity to Escherichia coli pUC19 DNA assessed as form 1 DNA level at 0.175 mM after 9.07 hrs by agarose gel electrophoresis; type: nucleic-acid assay
Nucleic Acid [7] = test: Binding affinity to Escherichia coli pUC19 DNA assessed as form 2 DNA level at 0.175 mM after 9.07 hrs by agarose gel electrophoresis; type: nucleic-acid assay
Nucleic Acid [8] = test: Binding affinity to Escherichia coli pUC19 DNA assessed as form 1 DNA level at 0.175 mM after 13.07 hrs by agarose gel electrophoresis; type: nucleic-acid assay
Nucleic Acid [9] = test: Binding affinity to Escherichia coli pUC19 DNA assessed as form 2 DNA level at 0.320 mM after 4.95 hrs by agarose gel electrophoresis; type: nucleic-acid assay
Nucleic Acid [10] = test: Binding affinity to Escherichia coli pUC19 DNA assessed as form 1 DNA level at 0.320 mM after 9.07 hrs by agarose gel electrophoresis; type: nucleic-acid assay
Nucleic Acid [11] = test: Binding affinity to Escherichia coli pUC19 DNA assessed as form 2 DNA level at 0.320 mM after 9.07 hrs by agarose gel electrophoresis; type: nucleic-acid assay
Nucleic Acid [12] = test: Binding affinity to Escherichia coli pUC19 DNA assessed as form 1 DNA level at 0.320 mM after 13.07 hrs by agarose gel electrophoresis; type: nucleic-acid assay
Nucleic Acid [13] = test: Binding affinity to Escherichia coli pUC19 DNA assessed as form 2 DNA level at 0.320 mM after 13.07 hrs by agarose gel electrophoresis; type: nucleic-acid assay
Nucleic Acid [14] = test: Binding affinity to Escherichia coli pUC19 DNA assessed as form 1 DNA level at 0.320 mM after 27.33 hrs by agarose gel electrophoresis; type: nucleic-acid assay
Nucleic Acid [15] = test: Binding affinity to Escherichia coli pUC19 DNA assessed as form 1 DNA level at 0.320 mM by agarose gel electrophoresis; type: nucleic-acid assay
Nucleic Acid [16] = test: Binding affinity to Escherichia coli pUC19 DNA assessed as form 2 DNA level at 0.320 mM by agarose gel electrophoresis; type: nucleic-acid assay
Nucleic Acid [17] = test: Binding affinity to Escherichia coli pUC19 DNA assessed as form 1 DNA level at 0.320 mM after 4.95 hrs by agarose gel electrophoresis; type: nucleic-acid assay
Nucleic Acid [18] = test: Binding affinity to Escherichia coli pUC19 DNA assessed as form 2 DNA level at 0.320 mM after 27.33 hrs by agarose gel electrophoresis; type: nucleic-acid assay
Nucleic Acid [19] = test: Binding affinity to Escherichia coli pUC19 DNA assessed as form 1 DNA level at 0.463 mM by agarose gel electrophoresis; type: nucleic-acid assay
Nucleic Acid [20] = test: Binding affinity to Escherichia coli pUC19 DNA assessed as form 2 DNA level at 0.463 mM by agarose gel electrophoresis; type: nucleic-acid assay
HeLa [21] = test: Growth inhibition of human HeLa cells at 1000 uM after 72 hrs by MTT assay; type: functional; parameters: scale not given: the % may be the effect or the level left
HeLa [22] = test: Growth inhibition of human HeLa cells at 100 uM after 72 hrs by MTT assay; type: functional; parameters: scale not given: the % may be the effect or the level left
HeLa [23] = test: Growth inhibition of human HeLa cells at 10 uM after 72 hrs by MTT assay; type: functional; parameters: scale not given: the % may be the effect or the level left
HL-60 [24] = test: Growth inhibition of human HL60 cells at 1000 uM after 72 hrs by MTT assay; type: functional; parameters: scale not given: the % may be the effect or the level left
HL-60 [25] = test: Growth inhibition of human HL60 cells at 100 uM after 72 hrs by MTT assay; type: functional; parameters: scale not given: the % may be the effect or the level left
HL-60 [26] = test: Growth inhibition of human HL60 cells at 10 uM after 72 hrs by MTT assay; type: functional; parameters: scale not given: the % may be the effect or the level left
Nucleic Acid [27] = test: Binding affinity to Escherichia coli pUC19 DNA assessed as form 1 DNA level at 0.698 mM by agarose gel electrophoresis; type: nucleic-acid assay
Nucleic Acid [28] = test: Binding affinity to Escherichia coli pUC19 DNA assessed as form 2 DNA level at 0.698 mM by agarose gel electrophoresis; type: nucleic-acid assay
Nucleic Acid [29] = test: Binding affinity to Escherichia coli pUC19 DNA assessed as form 1 DNA level at 0.175 mM after 4.95 hrs by agarose gel electrophoresis; type: nucleic-acid assay
Nucleic Acid [30] = test: Binding affinity to Escherichia coli pUC19 DNA assessed as form 2 DNA level at 0.175 mM after 4.95 hrs by agarose gel electrophoresis; type: nucleic-acid assay
Nucleic Acid [31] = test: Binding affinity to Escherichia coli pUC19 DNA assessed as form 1 DNA level at 0.463 mM after 4.42 hrs by agarose gel electrophoresis; type: nucleic-acid assay
Nucleic Acid [32] = test: Binding affinity to Escherichia coli pUC19 DNA assessed as form 2 DNA level at 0.463 mM after 4.42 hrs by agarose gel electrophoresis; type: nucleic-acid assay
Nucleic Acid [33] = test: Binding affinity to Escherichia coli pUC19 DNA assessed as form 1 DNA level at 0.463 mM after 7.08 hrs by agarose gel electrophoresis; type: nucleic-acid assay
Nucleic Acid [34] = test: Binding affinity to Escherichia coli pUC19 DNA assessed as form 2 DNA level at 0.463 mM after 7.08 hrs by agarose gel electrophoresis; type: nucleic-acid assay
Nucleic Acid [35] = test: Binding affinity to Escherichia coli pUC19 DNA assessed as form 1 DNA level at 0.463 mM after 11.30 hrs by agarose gel electrophoresis; type: nucleic-acid assay
Nucleic Acid [36] = test: Binding affinity to Escherichia coli pUC19 DNA assessed as form 2 DNA level at 0.463 mM after 11.30 hrs by agarose gel electrophoresis; type: nucleic-acid assay
Nucleic Acid [37] = test: Binding affinity to Escherichia coli pUC19 DNA assessed as form 1 DNA level at 0.463 mM after 15 hrs by agarose gel electrophoresis; type: nucleic-acid assay
Nucleic Acid [38] = test: Binding affinity to Escherichia coli pUC19 DNA assessed as form 2 DNA level at 0.463 mM after 15 hrs by agarose gel electrophoresis; type: nucleic-acid assay
Nucleic Acid [39] = test: Binding affinity to Escherichia coli pUC19 DNA assessed as form 1 DNA level at 0.698 mM after 4.95 hrs by agarose gel electrophoresis; type: nucleic-acid assay
Nucleic Acid [40] = test: Binding affinity to Escherichia coli pUC19 DNA assessed as form 2 DNA level at 0.698 mM after 4.95 hrs by agarose gel electrophoresis; type: nucleic-acid assay
Nucleic Acid [41] = test: Binding affinity to Escherichia coli pUC19 DNA assessed as form 1 DNA level at 0.698 mM after 9.07 hrs by agarose gel electrophoresis; type: nucleic-acid assay
Nucleic Acid [42] = test: Binding affinity to Escherichia coli pUC19 DNA assessed as form 2 DNA level at 0.698 mM after 9.07 hrs by agarose gel electrophoresis; type: nucleic-acid assay
Nucleic Acid [43] = test: Binding affinity to Escherichia coli pUC19 DNA assessed as form 1 DNA level at 0.698 mM after 13.07 hrs by agarose gel electrophoresis; type: nucleic-acid assay
Nucleic Acid [44] = test: Binding affinity to Escherichia coli pUC19 DNA assessed as form 2 DNA level at 0.698 mM after 13.07 hrs by agarose gel electrophoresis; type: nucleic-acid assay
Nucleic Acid [45] = test: Binding affinity to Escherichia coli pUC19 DNA assessed as form 1 DNA level at 0.698 mM after 23.12 hrs by agarose gel electrophoresis; type: nucleic-acid assay
Nucleic Acid [46] = test: Binding affinity to Escherichia coli pUC19 DNA assessed as form 2 DNA level at 0.698 mM after 23.12 hrs by agarose gel electrophoresis; type: nucleic-acid assay

Cl.Cl.NNC1=NCCN1
Activity (Nucleic Acid [1]): 0.4%
Activity (Nucleic Acid [2]): 99.6%
Activity (Nucleic Acid [3]): 3.07%
Activity (Nucleic Acid [4]): 93.9%
Activity (Nucleic Acid [5]): 6.09%
Activity (Nucleic Acid [6]): 98.2%
Activity (Nucleic Acid [7]): 1.8%
Activity (Nucleic Acid [8]): 96.9%
Activity (Nucleic Acid [9]): 5.03%
Activity (Nucleic Acid [10]): 94.1%
Activity (Nucleic Acid [11]): 5.87%
Activity (Nucleic Acid [12]): 92%
Activity (Nucleic Acid [13]): 7.99%
Activity (Nucleic Acid [14]): 72.2%
Activity (Nucleic Acid [15]): 96.8%
Activity (Nucleic Acid [16]): 3.24%
Activity (Nucleic Acid [17]): 95%
Activity (Nucleic Acid [18]): 27.8%
Activity (Nucleic Acid [19]): 97.6%
Activity (Nucleic Acid [20]): 2.43%
Activity (HeLa [21]): 2%
Activity (HeLa [22]): 1%
Activity (HeLa [23]): 1%
Activity (HL-60 [24]): 57%
Activity (HL-60 [25]): 4%
Activity (HL-60 [26]): 1%
Activity (Nucleic Acid [27]): 98.5%
Activity (Nucleic Acid [28]): 1.52%
Activity (Nucleic Acid [29]): 98.6%
Activity (Nucleic Acid [30]): 1.43%
Activity (Nucleic Acid [31]): 97.4%
Activity (Nucleic Acid [32]): 2.64%
Activity (Nucleic Acid [33]): 95.2%
Activity (Nucleic Acid [34]): 4.78%
Activity (Nucleic Acid [35]): 92.9%
Activity (Nucleic Acid [36]): 7.13%
Activity (Nucleic Acid [37]): 90.3%
Activity (Nucleic Acid [38]): 9.67%
Activity (Nucleic Acid [39]): 97.9%
Activity (Nucleic Acid [40]): 2.13%
Activity (Nucleic Acid [41]): 95.8%
Activity (Nucleic Acid [42]): 4.22%
Activity (Nucleic Acid [43]): 92.4%
Activity (Nucleic Acid [44]): 7.62%
Activity (Nucleic Acid [45]): 85.8%
Activity (Nucleic Acid [46]): 14.2%
